Test results published in patent US20260191803A1, “SYSTEM AND METHOD FOR THE TREATMENT OF TELOGEN EFFLUVIUM AND CHEMOTHERAPY INDUCED ALOPECIA” (Follea International, priority 2025, published 2026).

Tested on: hair shedding
Test: Example 5: hair shedding, hairs removed with brush after 10% phenylephrine or placebo
Format: in vivo, human
Conditions: average of 15 patients; versus placebo
Description: Patients: Fifteen female subjects, ages 18-40, were included in the study. Subjects were recruited based on telogen effluvium diagnosis. Subjects with uncontrolled hypertension, that were pregnant or breastfeeding, had been diagnosed with pattern hair loss or with other hair loss in conjunction with female pattern hair loss were excluded from the study.
Hair Shedding: To measure hair shedding, a 4-day protocol was designed. On the first day patients were instructed to wash their hair and use styling products and procedures as they normally would. On the second day, patients were instructed not to wash their hair and to apply 0.5 mL of a placebo solution, containing a vehicle only, on the frontal area of the scalp in an 8×10 cm2 target area. Patients were instructed to wait 45 minutes, after which, they brushed their hair 20 times from the front of the scalp to the bottom of head using a new brush. After the procedure, the brushes were sealed in a plastic bag. On day three, patients were instructed to wash their hair and use styling products and procedures as they normally would. […] After each clinical procedure, the investigator counted the hairs collected on each brush. A new brush was used for each procedure.

CNC[C@H](O)c1cccc(O)c1 [phenylephrine]
Average reduction in hair loss: approximately 42%
